Measured values reported in ChEMBL document CHEMBL1201862, “PubChem BioAssay data set” (2004).
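Each compound was tested at five concentrations against cells in 96-well plates for 48 hours. At the GI50, growth is halved.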 Calls of active or inactive are those of the source. Rule as the data show it: active = GI50 up to about 1.1 µM and inactive = higher.

Columns and labels:
Test in all cases: growth of human tumour cells (NCI), 48 h
HCT-116 = system: HCT-116
OVCAR-3 = system: OVCAR-3
T47D = system: T47D
SR = system: SR
SNB-75 = system: SNB-75
SW-620 = system: SW-620
DU-145 = system: DU-145
786-0 = system: 786-0
HL-60 = system: HL-60
A549 = system: A549
IGROV-1 = system: IGROV-1
TK-10 = system: TK-10
MDA-MB-231 = system: MDA-MB-231
CAKI-1 = system: CAKI-1
UACC-257 = system: UACC-257
RPMI-8226 = system: RPMI-8226
SN12C = system: SN12C
HT-29 = system: HT-29
UO-31 = system: UO-31
SK-MEL-2 = system: SK-MEL-2
OVCAR-8 = system: OVCAR-8
ACHN = system: ACHN
Malme-3M = system: Malme-3M
OVCAR-4 = system: OVCAR-4
K562 = system: K562
HOP-62 = system: HOP-62
KM12 = system: KM12
LOX IMVI = system: LOX IMVI
A498 = system: A498
EKVX = system: EKVX
OVCAR-5 = system: OVCAR-5
U-251 = system: U-251
Hs-578T = system: Hs-578T
MOLT-4 = system: MOLT-4
CCRF-CEM = system: CCRF-CEM
SK-OV-3 = system: SK-OV-3
MDA-N = system: MDA-N
UACC-62 = system: UACC-62
BT-549 = system: BT-549
M14 = system: M14
SF-539 = system: SF-539
RXF 393 = system: RXF 393
PC-3 = system: PC-3
SK-MEL-5 = system: SK-MEL-5
NCI-H226 = system: NCI-H226
SNB-19 = system: SNB-19
SF-295 = system: SF-295
SK-MEL-28 = system: SK-MEL-28
MCF7 = system: MCF7
NCI-H522 = system: NCI-H522
NCI-H23 = system: NCI-H23
SF-268 = system: SF-268
COLO 205 = system: COLO 205
HCT-15 = system: HCT-15
MDA-MB-435 = system: MDA-MB-435
NCI/ADR-RES = system: NCI/ADR-RES
HCC 2998 = system: HCC 2998
NCI-H460 = system: NCI-H460
HOP-92 = system: HOP-92

## N#CC1=C(N)N(c2ccccc2)C(c2ccco2)C1(C#N)C#N (configuration not stated)
HCT-116
  GI50: 28.5 µM (inactive)
OVCAR-3
  GI50: 19 µM (inactive)
T47D
  GI50: 15.2 µM (inactive)
SR
  GI50: 20.5 µM (inactive)
SNB-75
  GI50: 20 µM (inactive)
SW-620
  GI50: 17.9 µM (inactive)
DU-145
  GI50: 19.4 µM (inactive)
786-0
  GI50: 17.5 µM (inactive)
HL-60
  GI50: 17.5 µM (inactive)
A549
  GI50: 38.2 µM (inactive)
IGROV-1
  GI50: 19.2 µM (inactive)
TK-10
  GI50: 16.4 µM (inactive)
MDA-MB-231
  GI50: 15.3 µM (inactive)
CAKI-1
  GI50: 30.6 µM (inactive)
UACC-257
  GI50: 18.4 µM (inactive)
RPMI-8226
  GI50: 19.4 µM (inactive)
SN12C
  GI50: 30.3 µM (inactive)
HT-29
  GI50: 20 µM (inactive)
UO-31
  GI50: 18.7 µM (inactive)
SK-MEL-2
  GI50: 27.5 µM (inactive)
OVCAR-8
  GI50: 23.3 µM (inactive)
ACHN
  GI50: 16.7 µM (inactive)
Malme-3M
  GI50: 22.9 µM (inactive)
OVCAR-4
  GI50: 21.3 µM (inactive)
K562
  GI50: 6.58 µM (inactive)
HOP-62
  GI50: 21.8 µM (inactive)
KM12
  GI50: 17.4 µM (inactive)
LOX IMVI
  GI50: 16.7 µM (inactive)
A498
  GI50: 21.8 µM (inactive)
EKVX
  GI50: 20 µM (inactive)
OVCAR-5
  GI50: 22.9 µM (inactive)
U-251
  GI50: 21.8 µM (inactive)
Hs-578T
  GI50: 36.6 µM (inactive)
MOLT-4
  GI50: 25.5 µM (inactive)
CCRF-CEM
  GI50: 14.3 µM (inactive)
SK-OV-3
  GI50: 77.8 µM (inactive)
MDA-N
  GI50: 27.8 µM (inactive)
UACC-62
  GI50: 23.2 µM (inactive)
BT-549
  GI50: 18.8 µM (inactive)
M14
  GI50: 20.6 µM (inactive)
SF-539
  GI50: 19.3 µM (inactive)
RXF 393
  GI50: 17.5 µM (inactive)
PC-3
  GI50: 27.4 µM (inactive)
SK-MEL-5
  GI50: 17.4 µM (inactive)
NCI-H226
  GI50: 18 µM (inactive)
SNB-19
  GI50: 26.9 µM (inactive)
SF-295
  GI50: 28.4 µM (inactive)
SK-MEL-28
  GI50: 17.9 µM (inactive)
MCF7
  GI50: 17.4 µM (inactive)
NCI-H522
  GI50: 16.7 µM (inactive)
NCI-H23
  GI50: 19.9 µM (inactive)
SF-268
  GI50: 34.7 µM (inactive)
COLO 205
  GI50: 19.4 µM (inactive)
HCT-15
  GI50: 18.3 µM
MDA-MB-435
  GI50: 28.4 µM (inactive)
NCI/ADR-RES
  GI50: 27 µM (inactive)
HCC 2998
  GI50: 16.4 µM (inactive)

## CC(=O)c1ccc(Nc2nc3ccccc3c3occc23)cc1
HCT-116
  GI50: 11.4 µM (inactive)
OVCAR-3
  GI50: 14.9 µM (inactive)
NCI-H460
  GI50: 4.71 µM (inactive)
T47D
  GI50: 5.94 µM (inactive)
SR
  GI50: 2.92 µM (inactive)
DU-145
  GI50: 16.6 µM (inactive)
786-0
  GI50: 5.6 µM (inactive)
HL-60
  GI50: 0.036 µM (active)
A549
  GI50: 11.1 µM (inactive)
IGROV-1
  GI50: 9.06 µM (inactive)
TK-10
  GI50: 7.1 µM (inactive)
MDA-MB-231
  GI50: 13.1 µM (inactive)
CAKI-1
  GI50: 3.26 µM (inactive)
UACC-257
  GI50: 13.2 µM (inactive)
RPMI-8226
  GI50: 5.48 µM (inactive)
SN12C
  GI50: 31.9 µM (inactive)
HT-29
  GI50: 4.16 µM (inactive)
UO-31
  GI50: 20.4 µM (inactive)
SK-MEL-2
  GI50: 14.6 µM (inactive)
OVCAR-8
  GI50: 32.5 µM (inactive)
ACHN
  GI50: 11.1 µM (inactive)
Malme-3M
  GI50: 23.3 µM (inactive)
OVCAR-4
  GI50: 1.79 µM (inactive)
HOP-62
  GI50: 12.4 µM (inactive)
KM12
  GI50: 7.14 µM (inactive)
LOX IMVI
  GI50: 9.57 µM (inactive)
A498
  GI50: 2.99 µM (inactive)
EKVX
  GI50: 15.9 µM (inactive)
OVCAR-5
  GI50: 36 µM (inactive)
U-251
  GI50: 18.8 µM (inactive)
Hs-578T
  GI50: 15.3 µM (inactive)
MOLT-4
  GI50: 1.85 µM (inactive)
CCRF-CEM
  GI50: 10.5 µM (inactive)
SK-OV-3
  GI50: 18.4 µM (inactive)
MDA-N
  GI50: 6.98 µM (inactive)
UACC-62
  GI50: 10.7 µM (inactive)
BT-549
  GI50: 19.8 µM (inactive)
M14
  GI50: 14.1 µM (inactive)
SF-539
  GI50: 17.1 µM (inactive)
PC-3
  GI50: 22.4 µM (inactive)
SK-MEL-5
  GI50: 12.1 µM (inactive)
NCI-H226
  GI50: 17 µM (inactive)
SNB-19
  GI50: 34.8 µM (inactive)
SF-295
  GI50: 6.31 µM (inactive)
SK-MEL-28
  GI50: 2.34 µM (inactive)
MCF7
  GI50: 8.22 µM (inactive)
NCI-H522
  GI50: 2.88 µM (inactive)
NCI-H23
  GI50: 12.2 µM (inactive)
HOP-92
  GI50: 12.8 µM (inactive)
SF-268
  GI50: 14.1 µM (inactive)
COLO 205
  GI50: 8.99 µM (inactive)
HCT-15
  GI50: 5.08 µM
MDA-MB-435
  GI50: 3.08 µM (inactive)
NCI/ADR-RES
  GI50: 11.9 µM (inactive)
HCC 2998
  GI50: 6.89 µM (inactive)
